Molecular target: human ERK-2 (Mitogen Activated Kinase 1) (Homo sapiens (Human), UniProt P28482)
Experiment: ERK-2 Enzymatic Assay
Type: biochemical
Details: human ERK-2 enzyme 5 nM, 25 μM ATP, S/T17 peptide substrate; isomer = configuration of CR2R3
Experimental: Compounds were tested in an enzymatic assay using human ERK-2 (Mitogen Activated Kinase 1), recombinantly expressed as an n-terminal 6-His fusion protein in E. coli and corresponding to aa 8-360. […] Test compounds were diluted in DMSO in 3-fold serial dilutions at 100× final concentrations. […] The data collected from each well was fit to a straight line, and the resulting rates were used to calculate percent of control. Percent of control was plotted against compound concentration, and IC50 values were determined using a four-parameter fit.

Sequence of human ERK-2 (Mitogen Activated Kinase 1) (P28482 8-360): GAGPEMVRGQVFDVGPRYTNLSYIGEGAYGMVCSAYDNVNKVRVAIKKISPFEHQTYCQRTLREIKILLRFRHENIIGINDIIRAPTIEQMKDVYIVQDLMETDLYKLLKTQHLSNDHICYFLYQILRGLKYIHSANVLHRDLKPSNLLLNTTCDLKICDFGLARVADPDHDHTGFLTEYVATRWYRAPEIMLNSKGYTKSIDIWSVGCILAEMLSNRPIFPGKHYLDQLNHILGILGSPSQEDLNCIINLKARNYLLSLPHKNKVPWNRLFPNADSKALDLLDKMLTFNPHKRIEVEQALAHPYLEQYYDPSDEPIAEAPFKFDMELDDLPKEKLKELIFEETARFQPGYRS

| Compound | IC50 |
| --- | --- |
| Cn1nccc1Nc1cc(-c2cc3n4c(nnc4c2)[C@@H](Cc2ccccc2)CO3)ccn1 [(R) I-38, 4-(3-benzyl-3,4-dihydro-5-oxa-1,2,2a^1-triazaacenaphthylen-7-yl)-N-(1-methyl-1H-pyrazol-5-yl)pyridin-2-amine] | 0.02 nM |
| CN1C(=O)C[C@@H](Cc2ccc(Cl)cc2)c2nnc3cc(-c4ccnc(Nc5ccnn5C)c4)cc1n23 [(R) I-40, 9-(4-chlorobenzyl)-6-methyl-4-(2-((1-methyl-1H-pyrazol-5-yl)amino)pyridin-4-yl)-8,9-dihydro-1,2,2a^1,6-tetraazabenzo[cd]azulen-7(6H)-one] | 1.35 nM |
| Cn1nccc1Nc1nccc(-c2cc3n4c(nnc4c2)[C@@H](Cn2cc(Cl)cn2)CCO3)n1 [(R) I-42, (R)-4-(9-((4-chloro-1H-pyrazol-1-yl)methyl)-8,9-dihydro-7H-6-oxa-1,2,2a^1-triazabenzo[cd]azulen-4-yl)-N-(1-methyl-1H-pyrazol-5-yl)pyrimidin-2-amine] | 0.079 nM |
| COc1ncccc1C[C@@H]1CN(C)c2cc(-c3ccnc(Nc4ccnn4C)n3)cc3nnc1n23 [(R) I-43, 4-(3-((2-methoxypyridin-3-yl)methyl)-5-methyl-4,5-dihydro-3H-1,2,2a^1,5-tetraazaacenaphthylen-7-yl)-N-(1-methyl-1H-pyrazol-5-yl)pyrimidin-2-amine] | 120 nM |
| COc1ccc(C[C@H]2COc3cc(-c4ccnc(Nc5ccnn5C)n4)cc4nnc2n34)cc1 [(R) I-50, 4-(3-(4-methoxybenzyl)-3,4-dihydro-5-oxa-1,2,2a^1-triazaacenaphthylen-7-yl)-N-(1-methyl-1H-pyrazol-5-yl)pyrimidin-2-amine] | 0.02 nM |
| Cn1nccc1Nc1cc(-c2cc3n4c(nnc4c2)[C@@H](Cc2ccc(F)c(F)c2)CO3)ccn1 [(R) I-54, 4-(3-(3,4-difluorobenzyl)-3,4-dihydro-5-oxa-1,2,2a^1-triazaacenaphthylen-7-yl)-N-(1-methyl-1H-pyrazol-5-yl)pyridin-2-amine] | 0.03 nM |
| Cn1nccc1Nc1nccc(-c2cc3n4c(nnc4c2)[C@@H](Cn2cc(C4CC4)cn2)CCO3)n1 [(R) I-56, 4-(9-((4-cyclopropyl-1H-pyrazol-1-yl)methyl)-8,9-dihydro-7H-6-oxa-1,2,2a^1-triazabenzo[cd]azulen-4-yl)-N-(1-methyl-1H-pyrazol-5-yl)pyrimidin-2-amine] | < 0.02 nM |

Other lines, results leading:

| IC50 | Compound |
| --- | --- |
| < 0.02 nM | Cn1nccc1Nc1nccc(-c2cc3n4c(nnc4c2)[C@@H](Cc2ccc(F)cc2)CO3)n1 [(R) I-44, 4-(3-(4-fluorobenzyl)-3,4-dihydro-5-oxa-1,2,2a^1-triazaacenaphthylen-7-yl)-N-(1-methyl-1H-pyrazol-5-yl)pyrimidin-2-amine] |
| < 0.02 nM | CC(C)C[C@H]1COc2cc(-c3ccnc(Nc4ccnn4C)n3)cc3nnc1n23 [(R) I-45, 4-(3-isobutyl-3,4-dihydro-5-oxa-1,2,2a^1-triazaacenaphthylen-7-yl)-N-(1-methyl-1H-pyrazol-5-yl)pyrimidin-2-amine] |
| < 0.02 nM | COc1ccc(C[C@H]2COc3cc(-c4ccnc(Nc5ccnn5C)n4)cc4nnc2n34)cc1F [(R) I-46, 4-(3-(3-fluoro-4-methoxybenzyl)-3,4-dihydro-5-oxa-1,2,2a^1-triazaacenaphthylen-7-yl)-N-(1-methyl-1H-pyrazol-5-yl)pyrimidin-2-amine] |
| < 0.02 nM | Cn1nccc1Nc1cc(-c2cc3n4c(nnc4c2)[C@@H](Cn2cc(Cl)cn2)CCO3)ccn1 [(R) I-47, 4-(9-((4-chloro-1H-pyrazol-1-yl)methyl)-8,9-dihydro-7H-6-oxa-1,2,2a^1-triazabenzo[cd]azulen-4-yl)-N-(1-methyl-1H-pyrazol-5-yl)pyridin-2-amine] |
| < 0.02 nM | Cn1nccc1Nc1cc(-c2cc3n4c(nnc4c2)[C@@H](Cc2ccc(Cl)cc2)CO3)ccn1 [(R) I-48, 4-(3-(4-chlorobenzyl)-3,4-dihydro-5-oxa-1,2,2a^1-triazaacenaphthylen-7-yl)-N-(1-methyl-1H-pyrazol-5-yl)pyridin-2-amine] |
